# Columns and labels:
# [1] = molecular target: Rho-associated protein kinase 1 (Homo sapiens) (UniProt Q13464); details: Compound concentration 100.0 nM
# [2] = molecular target: Ribosomal protein S6 kinase beta-1 (Homo sapiens) (UniProt P23443); details: Compound concentration 100.0 nM
# [3] = molecular target: MAP kinase-activated protein kinase 5 (Homo sapiens) (UniProt Q8IW41); details: Compound concentration 100.0 nM
# [4] = molecular target: Cyclin-dependent kinase 19 (Homo sapiens) (UniProt Q9BWU1); details: Compound concentration 100.0 nM
# [5] = molecular target: Ribosomal protein S6 kinase alpha-1 (Homo sapiens) (UniProt Q15418); details: Compound concentration 100.0 nM
# [6] = molecular target: Mitogen-activated protein kinase kinase kinase 11 (Homo sapiens) (UniProt Q16584); details: Compound concentration 100.0 nM
# [7] = molecular target: Eukaryotic translation initiation factor 2-alpha kinase 1 (Homo sapiens) (UniProt Q9BQI3); details: Compound concentration 100.0 nM
# [8] = molecular target: Cyclin-dependent kinase-like 2 (Homo sapiens) (UniProt Q92772); details: Compound concentration 100.0 nM
# [9] = molecular target: Serine/threonine-protein kinase ULK2 (Homo sapiens) (UniProt Q8IYT8); details: Compound concentration 100.0 nM
# [10] = molecular target: Calcium/calmodulin-dependent protein kinase kinase 2 (Homo sapiens) (UniProt Q96RR4); details: Compound concentration 100.0 nM
# [11] = molecular target: Beta-adrenergic receptor kinase 1 (Homo sapiens) (UniProt P25098); details: Compound concentration 100.0 nM
# [12] = molecular target: TRAF2 and NCK-interacting protein kinase (Homo sapiens) (UniProt Q9UKE5); details: Compound concentration 100.0 nM
# [13] = molecular target: Serine/threonine-protein kinase ULK3 (Homo sapiens) (UniProt Q6PHR2); details: Compound concentration 100.0 nM
# [14] = molecular target: Receptor tyrosine-protein kinase erbB-2 (Homo sapiens) (UniProt P04626); details: Compound concentration 100.0 nM
# [15] = molecular target: Mitogen-activated protein kinase kinase kinase 5 (Homo sapiens) (UniProt Q99683); details: Compound concentration 100.0 nM
# [16] = molecular target: Citron Rho-interacting kinase (Homo sapiens) (UniProt O14578); details: Compound concentration 100.0 nM
# [17] = molecular target: Serine/threonine-protein kinase PknB (Mycobacterium tuberculosis) (UniProt P9WI81); details: Compound concentration 100.0 nM
# [18] = molecular target: Membrane-associated tyrosine- and threonine-specific cdc2-inhibitory kinase (Homo sapiens) (UniProt Q99640); details: Compound concentration 100.0 nM
# [19] = molecular target: Proto-oncogene tyrosine-protein kinase ROS (Homo sapiens) (UniProt P08922); details: Compound concentration 100.0 nM
# [20] = molecular target: Mitogen-activated protein kinase 4 (Homo sapiens) (UniProt P31152); details: Compound concentration 100.0 nM
# [21] = molecular target: Serine/threonine-protein kinase DCLK1 (Homo sapiens) (UniProt O15075); details: Compound concentration 100.0 nM
# [22] = molecular target: Ephrin type-A receptor 3 (Homo sapiens) (UniProt P29320); details: Compound concentration 100.0 nM
# [23] = molecular target: Tyrosine-protein kinase Fes/Fps (Homo sapiens) (UniProt P07332); details: Compound concentration 100.0 nM
# [24] = molecular target: Tyrosine-protein kinase ABL1 (Homo sapiens) (UniProt P00519); details: Compound concentration 100.0 nM
# [25] = molecular target: Mitogen-activated protein kinase 11 (Homo sapiens) (UniProt Q15759); details: Compound concentration 100.0 nM
# [26] = molecular target: BMP-2-inducible protein kinase (Homo sapiens) (UniProt Q9NSY1); details: Compound concentration 100.0 nM
# [27] = molecular target: Misshapen-like kinase 1 (Homo sapiens) (UniProt Q8N4C8); details: Compound concentration 100.0 nM
# [28] = molecular target: Mitogen-activated protein kinase kinase kinase 1 (Homo sapiens) (UniProt Q13233); details: Compound concentration 100.0 nM
# [29] = molecular target: Epidermal growth factor receptor (Homo sapiens) (UniProt P00533); details: Compound concentration 100.0 nM
# [30] = molecular target: Mitogen-activated protein kinase kinase kinase 13 (Homo sapiens) (UniProt O43283); details: Compound concentration 100.0 nM
# [31] = molecular target: Serine/threonine-protein kinase 32B (Homo sapiens) (UniProt Q9NY57); details: Compound concentration 100.0 nM
# [32] = molecular target: Protein kinase C delta type (Homo sapiens) (UniProt Q05655); details: Compound concentration 100.0 nM
# [33] = molecular target: Ribosomal protein S6 kinase alpha-6 (Homo sapiens) (UniProt Q9UK32); details: Compound concentration 100.0 nM
# [34] = molecular target: Tyrosine-protein kinase Tec (Homo sapiens) (UniProt P42680); details: Compound concentration 100.0 nM
# [35] = molecular target: Calcium/calmodulin-dependent protein kinase type 1B (Homo sapiens) (UniProt Q6P2M8); details: Compound concentration 100.0 nM
# D(1B) dopamine receptor = D(1B) dopamine receptor (Homo sapiens, UniProt P21918); details: Compound concentration 10.0 uM
# [36] = molecular target: GABA-A receptor; anion channel (Rattus norvegicus) (UniProt O09028+P15431+P18506+P18508+P19969+P20236+P23574+P23576+P28471+P28473+P30191+P62813+P63079+P63138+Q91ZM7+Q9ES14); details: Compound concentration 10.0 uM
# [37] = molecular target: Cyclin-dependent kinase 14 (Homo sapiens) (UniProt O94921); details: Compound concentration 100.0 nM
# [38] = molecular target: Mitogen-activated protein kinase kinase kinase 14 (Homo sapiens) (UniProt Q99558); details: Compound concentration 100.0 nM
# [39] = system: Phosphatidylinositol 4,5-bisphosphate 3-kinase catalytic subunit alpha isoform (Homo sapiens), P42336 [E542K]; details: Compound concentration 100.0 nM
# [40] = molecular target: 5-hydroxytryptamine receptor 1E (Homo sapiens) (UniProt P28566); details: Compound concentration 10.0 uM
# [41] = molecular target: Tyrosine-protein kinase Blk (Homo sapiens) (UniProt P51451); details: Compound concentration 100.0 nM
# [42] = molecular target: Histamine H4 receptor (Homo sapiens) (UniProt Q9H3N8); details: Compound concentration 10.0 uM
# [43] = molecular target: Serine/threonine-protein kinase SIK2 (Homo sapiens) (UniProt Q9H0K1); details: Compound concentration 100.0 nM
# Sequence of Proto-oncogene tyrosine-protein kinase ROS (Homo sapiens) (P08922 whole entry): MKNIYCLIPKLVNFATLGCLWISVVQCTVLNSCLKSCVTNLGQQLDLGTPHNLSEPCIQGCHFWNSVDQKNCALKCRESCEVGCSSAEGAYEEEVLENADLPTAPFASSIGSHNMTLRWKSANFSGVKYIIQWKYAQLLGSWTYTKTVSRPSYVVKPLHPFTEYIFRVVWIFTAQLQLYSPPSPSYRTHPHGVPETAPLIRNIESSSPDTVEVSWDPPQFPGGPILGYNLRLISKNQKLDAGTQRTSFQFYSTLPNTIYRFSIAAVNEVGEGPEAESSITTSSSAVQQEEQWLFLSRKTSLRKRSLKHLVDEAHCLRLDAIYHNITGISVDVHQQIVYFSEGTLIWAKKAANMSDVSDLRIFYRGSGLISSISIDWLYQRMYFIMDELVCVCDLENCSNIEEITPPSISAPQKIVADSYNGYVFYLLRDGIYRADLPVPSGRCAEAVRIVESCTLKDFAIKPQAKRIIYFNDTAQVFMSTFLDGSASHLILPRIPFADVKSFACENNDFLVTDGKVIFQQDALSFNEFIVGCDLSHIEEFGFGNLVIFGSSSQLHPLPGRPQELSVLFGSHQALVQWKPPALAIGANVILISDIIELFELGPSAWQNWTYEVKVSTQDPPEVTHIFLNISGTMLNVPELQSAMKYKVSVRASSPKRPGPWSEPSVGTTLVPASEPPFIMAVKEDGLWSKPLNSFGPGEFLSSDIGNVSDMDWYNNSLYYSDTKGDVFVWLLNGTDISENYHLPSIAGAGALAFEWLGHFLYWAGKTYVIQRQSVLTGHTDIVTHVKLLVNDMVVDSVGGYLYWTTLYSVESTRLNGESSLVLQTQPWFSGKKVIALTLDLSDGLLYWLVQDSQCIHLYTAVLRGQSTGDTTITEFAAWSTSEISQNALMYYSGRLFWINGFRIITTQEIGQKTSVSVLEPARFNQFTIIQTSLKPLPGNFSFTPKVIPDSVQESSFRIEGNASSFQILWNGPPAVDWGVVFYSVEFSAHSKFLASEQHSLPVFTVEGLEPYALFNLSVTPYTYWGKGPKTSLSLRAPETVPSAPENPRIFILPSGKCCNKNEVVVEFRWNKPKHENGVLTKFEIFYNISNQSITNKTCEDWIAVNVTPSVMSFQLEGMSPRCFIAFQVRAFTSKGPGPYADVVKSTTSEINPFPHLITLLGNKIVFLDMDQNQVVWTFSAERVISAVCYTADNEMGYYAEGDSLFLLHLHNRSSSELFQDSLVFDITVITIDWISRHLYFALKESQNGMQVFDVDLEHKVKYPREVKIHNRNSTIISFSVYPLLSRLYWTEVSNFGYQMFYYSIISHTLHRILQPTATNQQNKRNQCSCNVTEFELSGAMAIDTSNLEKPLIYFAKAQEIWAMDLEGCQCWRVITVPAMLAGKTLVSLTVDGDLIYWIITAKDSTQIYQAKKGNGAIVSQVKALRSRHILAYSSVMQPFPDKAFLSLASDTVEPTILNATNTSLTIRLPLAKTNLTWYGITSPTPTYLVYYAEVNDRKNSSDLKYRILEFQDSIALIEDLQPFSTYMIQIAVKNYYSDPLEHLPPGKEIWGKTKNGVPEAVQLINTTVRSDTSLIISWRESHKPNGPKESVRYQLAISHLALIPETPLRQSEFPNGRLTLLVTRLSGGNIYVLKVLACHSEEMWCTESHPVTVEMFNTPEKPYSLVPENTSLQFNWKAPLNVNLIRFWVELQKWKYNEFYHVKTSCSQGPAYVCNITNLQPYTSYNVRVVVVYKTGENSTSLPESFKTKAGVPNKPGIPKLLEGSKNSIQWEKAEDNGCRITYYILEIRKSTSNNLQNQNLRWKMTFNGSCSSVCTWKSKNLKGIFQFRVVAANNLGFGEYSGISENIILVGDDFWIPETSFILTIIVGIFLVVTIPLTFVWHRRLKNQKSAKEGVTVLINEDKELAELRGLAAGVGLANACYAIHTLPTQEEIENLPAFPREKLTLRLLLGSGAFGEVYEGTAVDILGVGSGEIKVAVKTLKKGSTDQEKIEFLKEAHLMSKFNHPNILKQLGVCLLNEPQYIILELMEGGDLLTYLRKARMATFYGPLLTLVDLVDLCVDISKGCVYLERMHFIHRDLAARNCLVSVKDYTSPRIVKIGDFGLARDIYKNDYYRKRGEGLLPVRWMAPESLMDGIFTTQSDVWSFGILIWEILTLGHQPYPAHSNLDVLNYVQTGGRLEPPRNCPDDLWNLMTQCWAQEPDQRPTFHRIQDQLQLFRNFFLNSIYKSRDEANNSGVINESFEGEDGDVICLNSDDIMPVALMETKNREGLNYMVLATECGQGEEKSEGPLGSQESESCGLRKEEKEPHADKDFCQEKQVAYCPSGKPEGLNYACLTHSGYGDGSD
# Sequence of Calcium/calmodulin-dependent protein kinase type 1B (Homo sapiens) (Q6P2M8 whole entry): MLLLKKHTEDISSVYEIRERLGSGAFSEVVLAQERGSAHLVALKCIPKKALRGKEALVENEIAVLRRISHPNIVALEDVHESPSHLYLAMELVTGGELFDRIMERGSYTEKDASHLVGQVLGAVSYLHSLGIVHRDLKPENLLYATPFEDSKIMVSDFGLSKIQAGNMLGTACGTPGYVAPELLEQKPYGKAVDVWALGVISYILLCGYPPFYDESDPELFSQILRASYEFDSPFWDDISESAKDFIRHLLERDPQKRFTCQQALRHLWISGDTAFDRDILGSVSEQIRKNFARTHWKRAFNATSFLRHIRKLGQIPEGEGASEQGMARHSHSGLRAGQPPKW
# Sequence of BMP-2-inducible protein kinase (Homo sapiens) (Q9NSY1 whole entry, looked up): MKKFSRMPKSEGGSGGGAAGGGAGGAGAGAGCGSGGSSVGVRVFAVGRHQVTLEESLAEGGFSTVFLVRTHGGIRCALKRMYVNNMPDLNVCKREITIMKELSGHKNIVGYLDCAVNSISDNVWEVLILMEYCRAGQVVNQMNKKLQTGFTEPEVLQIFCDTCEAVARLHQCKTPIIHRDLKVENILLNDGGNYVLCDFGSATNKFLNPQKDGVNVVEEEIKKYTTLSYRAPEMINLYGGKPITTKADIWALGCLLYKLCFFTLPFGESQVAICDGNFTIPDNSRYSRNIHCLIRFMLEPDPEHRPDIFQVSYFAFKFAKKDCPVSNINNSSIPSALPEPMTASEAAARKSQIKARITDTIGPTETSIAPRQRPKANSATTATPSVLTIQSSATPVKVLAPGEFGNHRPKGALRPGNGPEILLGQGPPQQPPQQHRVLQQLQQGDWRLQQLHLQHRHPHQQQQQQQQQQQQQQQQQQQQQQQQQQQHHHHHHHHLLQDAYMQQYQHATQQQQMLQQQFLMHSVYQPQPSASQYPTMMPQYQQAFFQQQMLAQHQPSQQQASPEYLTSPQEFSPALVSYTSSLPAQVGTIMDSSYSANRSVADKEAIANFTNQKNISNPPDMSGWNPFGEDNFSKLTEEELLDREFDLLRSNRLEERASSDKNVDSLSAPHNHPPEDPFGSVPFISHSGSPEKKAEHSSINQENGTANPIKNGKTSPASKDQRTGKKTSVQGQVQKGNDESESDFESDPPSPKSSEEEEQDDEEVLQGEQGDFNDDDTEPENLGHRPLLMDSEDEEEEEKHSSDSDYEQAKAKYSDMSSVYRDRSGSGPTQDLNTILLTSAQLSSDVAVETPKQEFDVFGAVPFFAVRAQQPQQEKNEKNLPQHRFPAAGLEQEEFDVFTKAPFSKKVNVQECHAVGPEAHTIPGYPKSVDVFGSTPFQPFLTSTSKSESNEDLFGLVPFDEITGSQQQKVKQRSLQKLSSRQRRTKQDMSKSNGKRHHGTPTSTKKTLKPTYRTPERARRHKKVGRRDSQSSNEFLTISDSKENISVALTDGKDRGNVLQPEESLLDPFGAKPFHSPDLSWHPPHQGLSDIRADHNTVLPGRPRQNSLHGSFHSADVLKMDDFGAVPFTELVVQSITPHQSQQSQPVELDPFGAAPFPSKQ
# Sequence of Tyrosine-protein kinase Fes/Fps (Homo sapiens) (P07332 whole entry): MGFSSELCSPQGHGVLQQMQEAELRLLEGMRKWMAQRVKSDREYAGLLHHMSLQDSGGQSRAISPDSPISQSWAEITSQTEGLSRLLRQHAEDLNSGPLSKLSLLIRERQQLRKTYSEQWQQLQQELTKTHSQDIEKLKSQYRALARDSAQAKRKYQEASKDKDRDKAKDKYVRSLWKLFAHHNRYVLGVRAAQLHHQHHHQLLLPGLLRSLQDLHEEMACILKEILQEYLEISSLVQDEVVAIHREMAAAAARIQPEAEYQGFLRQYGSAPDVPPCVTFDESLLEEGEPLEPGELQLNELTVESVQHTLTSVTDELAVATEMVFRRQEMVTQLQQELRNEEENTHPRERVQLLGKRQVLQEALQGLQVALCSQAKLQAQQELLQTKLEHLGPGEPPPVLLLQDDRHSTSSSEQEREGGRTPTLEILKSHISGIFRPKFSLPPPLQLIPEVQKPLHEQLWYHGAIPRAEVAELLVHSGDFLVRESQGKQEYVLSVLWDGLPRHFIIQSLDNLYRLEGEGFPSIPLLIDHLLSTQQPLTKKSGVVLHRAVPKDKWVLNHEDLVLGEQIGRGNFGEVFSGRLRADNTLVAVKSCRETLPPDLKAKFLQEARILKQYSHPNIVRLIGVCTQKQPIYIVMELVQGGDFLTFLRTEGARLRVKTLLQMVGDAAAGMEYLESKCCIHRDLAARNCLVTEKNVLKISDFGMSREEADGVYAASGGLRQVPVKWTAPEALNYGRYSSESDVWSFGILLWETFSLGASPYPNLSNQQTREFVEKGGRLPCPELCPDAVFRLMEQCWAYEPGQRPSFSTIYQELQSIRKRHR
# Sequence of 5-hydroxytryptamine receptor 1E (Homo sapiens) (P28566 whole entry): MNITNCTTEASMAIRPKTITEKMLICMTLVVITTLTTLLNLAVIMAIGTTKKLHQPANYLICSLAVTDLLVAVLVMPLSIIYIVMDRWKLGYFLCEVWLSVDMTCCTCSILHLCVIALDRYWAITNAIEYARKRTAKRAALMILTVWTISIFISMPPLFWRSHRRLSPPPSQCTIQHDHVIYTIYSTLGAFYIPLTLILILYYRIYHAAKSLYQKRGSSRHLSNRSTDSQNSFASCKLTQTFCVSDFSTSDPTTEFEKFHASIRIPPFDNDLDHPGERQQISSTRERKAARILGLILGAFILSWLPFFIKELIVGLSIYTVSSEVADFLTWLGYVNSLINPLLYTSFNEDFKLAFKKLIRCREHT
smiles,measurement,setting,value
CCOC(=O)c1cc2cc(-c3cc(C(=O)NCc4ccc(C(=O)O)cc4)nn3C)ccc2[nH]1 [BI 4394],residual activity,[1],78%
same,residual activity,[2],88%
same,residual activity,[3],92%
same,residual activity,[4],0%
same,residual activity,[5],97%
same,residual activity,[6],88%
same,residual activity,[7],91%
same,residual activity,[8],88%
same,residual activity,[9],78%
same,residual activity,[10],95%
same,residual activity,[11],100%
same,residual activity,[12],100%
same,residual activity,[13],100%
same,residual activity,[14],99%
same,residual activity,[15],98%
same,residual activity,[16],100%
same,residual activity,[17],100%
same,residual activity,[18],100%
same,residual activity,[19],97%
same,residual activity,[20],86%
same,residual activity,[21],86%
same,residual activity,[22],100%
same,residual activity,[23],94%
same,residual activity,[24],94%
same,residual activity,[25],98%
same,residual activity,[26],100%
same,residual activity,[27],94%
same,residual activity,[28],90%
same,residual activity,[29],92%
same,residual activity,[30],74%
same,residual activity,[31],92%
same,residual activity,[32],90%
same,residual activity,[33],93%
same,residual activity,[34],99%
same,residual activity,[35],97%
same,inhibition,D(1B) dopamine receptor,59.6%
same,inhibition,[36],15.3%
same,residual activity,[37],100%
same,residual activity,[38],58%
same,residual activity,[39],96%
same,inhibition,[40],6.37%
same,residual activity,[41],99%
same,inhibition,[42],-1.52%
same,residual activity,[43],100%
Cn1nc(C(=O)NCc2ccc(C(=O)O)cc2)cc1-c1ccc2[nH]ccc2c1 [BI 4395],residual activity,[1],93%
same,residual activity,[2],91%
same,residual activity,[3],89%
same,residual activity,[4],100%
same,residual activity,[5],100%
same,residual activity,[6],87%
same,residual activity,[7],90%
same,residual activity,[8],78%
same,residual activity,[9],98%
same,residual activity,[10],80%
same,residual activity,[11],98%
same,residual activity,[12],97%
same,residual activity,[13],99%
same,residual activity,[14],92%
same,residual activity,[15],86%
same,residual activity,[16],59%
same,residual activity,[17],76%
same,residual activity,[18],93%
same,residual activity,[19],74%
same,residual activity,[20],89%
same,residual activity,[21],88%
same,residual activity,[22],89%
same,residual activity,[23],95%
same,residual activity,[24],62%
same,residual activity,[25],86%
same,residual activity,[26],82%
same,residual activity,[27],95%
same,residual activity,[28],65%
same,residual activity,[29],100%
same,residual activity,[30],78%
same,residual activity,[31],100%
same,residual activity,[32],89%
same,residual activity,[33],85%
same,residual activity,[34],89%
same,residual activity,[35],100%
same,inhibition,D(1B) dopamine receptor,73.9%
same,inhibition,[36],26.6%
same,residual activity,[37],100%
same,residual activity,[38],85%
same,residual activity,[39],88%
same,inhibition,[40],10.3%
same,residual activity,[41],100%
same,inhibition,[42],-6.14%
same,residual activity,[43],90%
